{
  "source": "patent US5516795A",
  "about": "“Heteroatom substituted propanyl derivatives having 5-lipoxygenase inhibitory activity” (Abbott Laboratories, priority 1994, dated 1996)",
  "molecular_target": "T1, 5-Lipoxygenase (Homo sapiens, UniProt P09917)",
  "T1 construct": "Human heparinized whole blood was preincubated with test compounds; endogenous in cells; host or cells: human heparinized whole blood (endogenous enzyme of the blood cells)",
  "T1 sequence (P09917 1-674)": "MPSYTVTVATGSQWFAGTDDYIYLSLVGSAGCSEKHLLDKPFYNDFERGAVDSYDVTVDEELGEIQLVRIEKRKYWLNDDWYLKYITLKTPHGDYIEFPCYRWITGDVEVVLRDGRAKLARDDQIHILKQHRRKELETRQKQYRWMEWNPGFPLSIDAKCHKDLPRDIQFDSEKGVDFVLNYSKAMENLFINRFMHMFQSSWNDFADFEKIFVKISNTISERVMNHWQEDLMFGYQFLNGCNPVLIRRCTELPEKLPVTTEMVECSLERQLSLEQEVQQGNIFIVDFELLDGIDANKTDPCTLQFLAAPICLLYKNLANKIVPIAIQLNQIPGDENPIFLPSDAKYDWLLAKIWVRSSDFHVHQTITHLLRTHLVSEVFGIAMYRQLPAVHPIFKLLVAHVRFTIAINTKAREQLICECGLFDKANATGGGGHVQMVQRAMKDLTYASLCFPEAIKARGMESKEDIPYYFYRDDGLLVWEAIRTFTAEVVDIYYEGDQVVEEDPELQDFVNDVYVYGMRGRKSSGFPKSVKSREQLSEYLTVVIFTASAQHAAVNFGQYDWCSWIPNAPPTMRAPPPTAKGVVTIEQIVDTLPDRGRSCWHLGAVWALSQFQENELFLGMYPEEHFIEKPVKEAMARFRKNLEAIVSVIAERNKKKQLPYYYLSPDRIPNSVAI",
  "assay": "Inhibition of calcium ionophore A23187-induced LTB4 biosynthesis in human whole blood (5-lipoxygenase inhibition)",
  "format": "cell-based",
  "conditions": "A23187 8.3 μM; for inhibition at 0.1 µM: @ 0.10 μM",
  "experimental": "Lipoxygenase Inhibition Determination\nInhibition of leukotriene biosynthesis was evaluated in an assay, involving calcium ionophore-induced LTB4 biosynthesis expressed human whole blood. Human heparinized whole blood was preincubated with test compounds or vehicle for 15 min at 37° C. followed by calcium ionophore A23187 challenge (final concentration of 8.3 μM) and the reaction terminated after 30 min by adding two volumes of methanol containing prostaglandin B2 as an internal recovery standard. The methanol extract was analyzed for LTB4 using a commercially available radioimmunoassay.\nIn Vitro Inhibitory Potencies of Compounds\nof this Invention Against 5-Lipoxygenase from\nStimulated LTB4 Formation in Human Whole Blood",
  "key": {"[1]": {"conditions": "human whole blood, read-out: In vitro inhibition of 5-lipoxygenase / stimulated LTB4 formation (% printed under head \"IC50 (10^-6 M)\")"}},
  "data": [
    {"molecule": "CO/N=C(\\c1cc(F)cc(OCc2ccc(N(C)C(=O)N(C)C)cc2)c1)[C@H]1COC(C)(C)O1", "note": "[Example 1, E-(4S)-O-methyl-2,2-dimethyl-4-[(5-fluoro-3-(4-(N',N'-dimethylaminocarbonyl-N-methylamino)benzyloxy)phenyl)oximinomethyl]-1,3-dioxolane]", "values": [
      {"measurement": "inhibition at 0.1 µM", "setting": "[1]", "value": 100, "unit": "%"}
    ]},
    {"molecule": "CO/N=C(\\c1cc(F)cc(OCc2ccc(N(C)C(C)=O)cc2)c1)[C@H]1COC(C)(C)O1", "note": "[Example 2, E-(4S)-O-methyl-2,2-dimethyl-4-[(5-fluoro-3-(4-(N-acetyl-N-methylamino)benzyloxy)phenyl)oximinomethyl]-1,3-dioxolane]", "values": [
      {"measurement": "inhibition at 0.2 µM", "setting": "@ 0.20 μM, human whole blood, read-out: In vitro inhibition of 5-lipoxygenase / stimulated LTB4 formation (% printed under head \"IC50 (10^-6 M)\")", "value": 82, "unit": "%"}
    ]},
    {"molecule": "C=CCN(C)c1ccc(Sc2cccc(/C(=N\\OC)[C@H]3COC(C)(C)O3)c2)cc1", "note": "[Example 3 (E oxime), E-(4S)-O-methyl-2,2-dimethyl-4-[(3-(4-(N-allyl-N-methylamino)phenylthioxyl)phenyl)oximinomethyl]-1,3dioxolane]", "values": [
      {"measurement": "IC50", "setting": "stimulated LTB4 formation in human whole blood, read-out: IC50 (10^-6 M)", "value": 50, "unit": "nM"}
    ]},
    {"molecule": "C=CCN(C)c1ccc(Sc2cccc(/C(=N/OC)[C@H]3COC(C)(C)O3)c2)cc1", "note": "[Example 3 (Z oxime), Z-(4S)-O-Methyl-2,2-dimethyl-4-[(3-(4-(N-allyl-N-methylamino)phenylthioxyl)phenyl)oximinomethyl]-1,3-dioxolane]", "values": [
      {"measurement": "inhibition at 6.25 µM", "setting": "[1]", "value": 99, "unit": "%"}
    ]},
    {"molecule": "CO/N=C(/c1cccc(Sc2ccc(N(C)C(=O)N(C)C)cc2)c1)[C@H]1COC(C)(C)O1", "note": "[Example 4, Z-(4S)-O-methyl-2,2-dimethyl-4-[(3-(4-(N',N'-dimethylaminocarbonyl-N-methylamino)phenylthioxyl)phenyl)oximinomethyl]-1,3-dioxolane]", "values": [
      {"measurement": "inhibition at 6.25 µM", "setting": "[1]", "value": 100, "unit": "%"}
    ]},
    {"molecule": "CO/N=C(\\c1cccc(Sc2ccc(N(C)C(=O)N(C)C)cc2)c1)[C@H]1COC(C)(C)O1", "note": "[Example 5, E-(4S)-O-methyl-2,2-dimethyl-4-[(3-(4-(N',N': dimethylaminocarbonyl-N-methylamino)phenylthioxyl)phenyl)oximinomethyl]-1,3: dioxolane]", "values": [
      {"measurement": "inhibition at 0.78 µM", "setting": "@ 0.78 μM, human whole blood, read-out: In vitro inhibition of 5-lipoxygenase / stimulated LTB4 formation (% printed under head \"IC50 (10^-6 M)\")", "value": 100, "unit": "%"}
    ]},
    {"molecule": "COC[C@@H](OC)[C@@H](OC)c1cc(F)cc(OCc2ccc(N(C)C(=O)N(C)C)cc2)c1", "note": "[Example 14, anti-(1S, 2R)-1-[(5-fluoro-3-(4-(N', N'-dimethylaminocarbonyl-N-methylamino)benzyloxy)phenyl)]-1,2,3-trimethoxypropane]", "values": [
      {"measurement": "inhibition at 0.1 µM", "setting": "[1]", "value": 49, "unit": "%"}
    ]}
  ]
}
